Measured values: article PMC4812014, “Structural Investigations of N-carbamoylputrescine Amidohydrolase from Medicago truncatula: Insights into the Ultimate Step of Putrescine Biosynthesis in Plants” (Frontiers in Plant Science, 2016)
Blank lines part the entries; values can stand above or below the molecule they belong to.

What was measured:
MtCPA [1] = target: T1, MtCPA (Medicago truncatula, UniProt G7ITU5); assay: X-ray crystallography of complex, […] Å; assay type: binding; conditions: cocrystallized with 17 mM cadaverine, pH 7.0; active site, non-covalent
T1 construct: gene MTR_2g086600; recombinant in E. coli BL21 Gold (pMCSG68); His6 tag cut by TEV, N-terminal Ser-Asn-Ala linker remains; homooctamer, active site fenced by dimer mate

MtCPA [2] = target: T1, MtCPA; assay: X-ray crystallography of complex, […] Å; assay type: binding; conditions: covalent; bound to Cys158 in active site; formed in crystal from 10 mM putrescine (probably with CO2), pH 7.0
MtCPA [3] = target: T2, MtCPA (Medicago truncatula, UniProt G7ITU5, C158S); assay: X-ray crystallography of complex, […] Å; assay type: binding; conditions: cocrystallized with 10 mM putrescine, pH 7.0; active site, non-covalent
T2 construct: gene MTR_2g086600; recombinant in E. coli BL21 Gold (pMCSG68); His6 tag cut by TEV, N-terminal Ser-Asn-Ala linker remains; homooctamer, active site fenced by dimer mate
T2 sequence (G7ITU5 1-301 C158S): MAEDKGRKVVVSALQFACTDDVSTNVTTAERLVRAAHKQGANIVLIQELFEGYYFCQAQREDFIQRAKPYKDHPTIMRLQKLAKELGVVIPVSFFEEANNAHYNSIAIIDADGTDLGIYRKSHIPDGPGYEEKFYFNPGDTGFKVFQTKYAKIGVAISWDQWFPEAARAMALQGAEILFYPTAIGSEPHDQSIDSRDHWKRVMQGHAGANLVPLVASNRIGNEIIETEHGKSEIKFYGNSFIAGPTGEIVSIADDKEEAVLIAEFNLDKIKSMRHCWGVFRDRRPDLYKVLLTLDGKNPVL

[4] = target: MtCPA-C158S mutant (Medicago truncatula); assay: crystal structure; hanging drop, 20% PEG3350, 8% Tacsimate pH 7.0 (with or without 10% glycerol); space group P2(1)2(1)2, two octamers in the asymmetric unit; data at 100 K
[5] = target: N-carbamoylputrescine amidohydrolase from Medicago truncatula (MtCPA), wild type (Medicago truncatula); assay: as above

T1 sequence (G7ITU5 entry or part of it): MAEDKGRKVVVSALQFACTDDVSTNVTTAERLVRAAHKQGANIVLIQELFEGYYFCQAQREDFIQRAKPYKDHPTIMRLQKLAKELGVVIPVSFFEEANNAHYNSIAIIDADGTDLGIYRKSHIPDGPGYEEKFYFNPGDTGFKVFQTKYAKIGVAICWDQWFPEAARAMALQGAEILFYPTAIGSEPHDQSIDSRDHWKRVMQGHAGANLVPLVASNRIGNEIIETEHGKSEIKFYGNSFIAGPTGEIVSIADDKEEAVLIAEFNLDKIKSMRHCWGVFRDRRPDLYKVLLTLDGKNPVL

Molecule: NCCCCCN [CAD, 1,5-diaminopentane]
- X-ray crystallography of complex, 2.19 Å (MtCPA [1]): we do indeed observe CAD in the active site

Molecule: NCCCCNC(O)O [DHMP, N-(dihydroxymethyl)putrescine]
- X-ray crystallography of complex, 1.97 Å (MtCPA [2]): DHMP was covalently bound to the catalytic Cys158

Molecule: NCCCCN [PUT, 1,4-diaminobutane]
- X-ray crystallography of complex, 2.29 Å (MtCPA [3]): MtCPA-C158S mutant cocrystallized with PUT clearly shows the ligand without any modifications

- stoichiometry N [4]: 8
Molecule: MtCPA-C158S mutant (enzyme)

- stoichiometry N [5]: 8
Molecule: N-carbamoylputrescine amidohydrolase from Medicago truncatula (MtCPA), wild type (enzyme)
